From US20100029949A1, “Activator for Peroxisome Proliferator Activated Receptor” (priority 2005, published 2010)

Legend:
Type in all cases: cell-based
[1] = molecular target: T1, PPAR α (Homo sapiens, UniProt Q07869); assay: GAL4-hPPAR α (LBD) luciferase reporter transactivation in CV-1 cells; conditions: test compound 10^−6 M, control GW-590735 10^−6 M = 100%
T1 construct: A receptor expression plasmid (pSG5-GAL4-hPPAR α or γ or δ (LBD)); expressed in transfected cells; host or cells: CV-1 cells (ATCC)
T1 sequence (Q07869 239-466 limits assumed): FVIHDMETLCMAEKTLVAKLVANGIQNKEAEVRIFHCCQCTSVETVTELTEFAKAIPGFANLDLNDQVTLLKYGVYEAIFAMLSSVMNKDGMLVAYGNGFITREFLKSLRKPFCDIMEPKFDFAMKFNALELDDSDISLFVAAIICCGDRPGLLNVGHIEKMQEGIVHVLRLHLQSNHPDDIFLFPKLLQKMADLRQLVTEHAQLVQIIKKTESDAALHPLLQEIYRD
Experimental: (§1) A receptor expression plasmid (pSG5-GAL4-hPPAR α or γ or δ (LBD)), a luciferase expression plasmid (pUC8-MH100x-4-TK-Luc) and β-galactosidase expression plasmid (pCMX-β-GAL) (Kliewer, S. A., et. al., (1992) Nature, 358:771-774) are transfected into CV-1 cells (ATCC). After gene transfer utilizing a lipofection reagent DMRIE-C or Lipofectamin 2000 (Invitrogen), it is incubated for 42 hours in the presence of the test compound. Then, the luciferase activity and β-GAL activity are measured on the soluble cells. The luciferase activity is calibrated by the β-GAL activity. A relative ligand activity is calculated for each of the PPAR α, γ and δ under the following conditions: a relative activity of PPAR α is calculated in consideration of a luciferase activity (assigned to 100%) of cells treated with the compound GW-590735 (PPARα-selective agonist); a relative activity of PPAR γ is calculated in consideration of a luciferase activity (assigned to 100%) cells treated with Rosiglitazone; and a relative activity of PPAR δ is calculated in consideration of a luciferase activity (assigned to 100%) of cells treated with GW-501516. See the below-described Example 4.
(§2) The PPARδ activating effects of test compounds (compounds of Examples) were measured by the following method: […]
(§3) After gene transfer utilizing a lipofection reagent DMRIE-C or Lipofectamin 2000 (Invitrogen), it is incubated for approx. 40 hours in the presence of the test compound. Then, the luciferase activity and β-GAL activity are measured on the soluble cells. […] A relative ligand activity is calculated for each of the PPAR α, γ and δ under the following conditions: a relative activity of PPAR α is calculated in consideration of a luciferase activity (assigned to 100%) of cells treated with GW-590735 (PPARα-selective agonist); a relative activity of […] is calculated in consideration of a luciferase activity (assigned to 100%) cells treated with Rosiglitazone; and a relative activity of PPARδ is calculated in consideration of a luciferase activity (assigned to 100%) of cells treated with GW-501516.

[2] = molecular target: T2, PPAR γ (Homo sapiens, UniProt P37231); assay: GAL4-hPPAR γ (LBD) luciferase reporter transactivation in CV-1 cells; conditions: test compound 10^−6 M, control Rosiglitazone 10^−5 M = 100%
T2 construct: A receptor expression plasmid (pSG5-GAL4-hPPAR α or γ or δ (LBD)); expressed in transfected cells; host or cells: CV-1 cells (ATCC)
T2 sequence (P37231 238-503 limits assumed): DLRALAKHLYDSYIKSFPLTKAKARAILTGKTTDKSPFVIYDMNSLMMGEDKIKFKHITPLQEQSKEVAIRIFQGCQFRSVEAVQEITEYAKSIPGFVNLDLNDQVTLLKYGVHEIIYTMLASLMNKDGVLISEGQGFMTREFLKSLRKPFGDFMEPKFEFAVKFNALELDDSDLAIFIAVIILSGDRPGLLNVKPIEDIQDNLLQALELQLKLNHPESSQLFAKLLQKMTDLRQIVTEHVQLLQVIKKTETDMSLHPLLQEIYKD
Experimental: as §1, §2, §3

[3] = molecular target: T3, PPAR δ (Homo sapiens, UniProt Q03181); assay: GAL4-hPPAR δ (LBD) luciferase reporter transactivation in CV-1 cells; conditions: test compound 10^−6 M, control GW-501516 10^−7 M = 100%
T3 construct: A receptor expression plasmid (pSG5-GAL4-hPPAR α or γ or δ (LBD)); expressed in transfected cells; host or cells: CV-1 cells (ATCC)
T3 sequence (Q03181 211-439 limits assumed): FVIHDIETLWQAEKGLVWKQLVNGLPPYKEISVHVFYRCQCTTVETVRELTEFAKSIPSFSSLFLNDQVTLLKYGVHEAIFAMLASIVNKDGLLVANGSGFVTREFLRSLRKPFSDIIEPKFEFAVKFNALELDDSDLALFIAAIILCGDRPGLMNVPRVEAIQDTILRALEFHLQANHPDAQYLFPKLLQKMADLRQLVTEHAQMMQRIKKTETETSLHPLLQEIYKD
Experimental: as §1, §2, §3

| Structure (SMILES) | PPAR α activity: relative value (%) of the test compound to 100% of the control compound [1] [%] | PPAR γ activity: relative value (%) of the test compound to 100% of the control compound [2] [%] | PPAR δ activity: relative value (%) of the test compound to 100% of the control compound [3] [%] |
| --- | --- | --- | --- |
| Cc1cc2c(CCc3cc(-c4ccc(C(F)(F)F)cc4)nn3C(C)C)noc2cc1OCC(=O)O [Example 2, 3-[2-[1-Isopropyl-3-(4-trifluoromethylphenyl)-1H-pyrazol-5-yl]ethyl]-5-methylbenzisoxazol-6-yloxyacetic acid] | 103.0 | 13.4 | 94.4 |
| Cc1cc2c(CCc3cc(-c4ccc(C(F)(F)F)cc4)nn3C(C)C)noc2cc1OC(C)(C)C(=O)O [Example 1, 2-[3-[2-[1-Isopropyl-3-(4-trifluoromethylphenyl)-1H-pyrazol-5-yl]ethyl]-5-methylbenzisoxazol-6-yloxy]-2-methylpropionic acid] | 62.7 | 5.4 | 84.7 |
| Cc1cc2c(CCc3cn(-c4ccc(C(F)(F)F)cc4)nc3C(C)C)noc2cc1OC(C)(C)C(=O)O [Example 3, 2-[3-[2-[3-Isopropyl-1-(4-trifluoromethylphenyl)-1H-pyrazol-4-yl]ethyl]-5-methylbenzisoxazol-6-yloxy]-2-methylpropionic acid] | 0.2 | 0.3 | 87.8 |
